Reference: PMC7849011, “Defining the Antimalarial Activity of Cipargamin in Healthy Volunteers Experimentally Infected with Blood-Stage Plasmodium falciparum” (Antimicrobial Agents and Chemotherapy, 2021)
Several values for one entry are separate records, joined by “and”; a condition that tells them apart may be missing. Identical values can stand only once. Entries after “also recorded” stand apart in the source; their conditions may differ. Like-named read-outs stand apart in the source and are kept apart here.

Experiments:
P. falciparum = assay: Population PK/PD modelling (Emax model) and dose simulation; assay type: in vivo, Plasmodium falciparum
Description: (§1) Data preparation, exploration, model definition, model evaluation and simulations were performed in R (version 3.5.1) and the R package IQRtools (version 1.0.6; IntiQuan, Basel, Switzerland) within the software package MonolixSuite 2018R2 (Lixoft, Antony, France). The MIC and the minimum parasiticidal concentration that achieves 90% of maximum effect (MPC90) were derived from the PK/PD model. Simulations were performed to predict the minimum effective single dose, defined as the dose that clears 10^9 parasites/ml. Further detail on PK/PD modeling methods is presented in Text S1.
(§2) Pharmacokinetic/Pharmacodynamic modelling methods and results […]
(§3) The objectives of the PK/PD modelling anal ysis w ere:
(§4) 1. To develop a population PK model of cipar gamin in healthy subjects inoculated with blood stage P. falciparum .
(§5) 2. To char acterize the PK/PD relationship between cipargamin pharmacokinetics and parasite cl ear ance in h eal th subjects inoculated with blood stage P. falcipar um .
(§6) 3. To determine the minimum inhibitory concent ration (M IC ) of cipargamin .
(§7) 4. To establish the minimum effective cipar gamin single dose required to kill 10 9
(§8) Data preparation, exploration, model definition, model evaluation and simulations were performed in R (version 3.5.1) and the R package IQRtools (version 1.0.6, IntiQuan GmbH, Basel, Switzerland) withi n the software package MonolixSuite2018R2 (Li xoft, Anton y, Fran ce) which implemen ts stochastic approx imation ex pectation-maximisation (SAEM) algorithm for parameter estimation.
(§9) One-, two- and three-compartment with different absorption and elimination models were tested. Zero- and first-order absorption models wi th or without lag time were examined. Data below the lower limit of quantitation ( LLO Q; 0.001 µg/ m L) were treated using a left - censoring method. Between subject vari abilit y ( BSV) of the PK parameters was assumed to be normally distributed on log -scale. The random effects across the par ameters within an individual were modelled according to a multivari ate normal distribution (MVN). BS V w as […]
(§10) supported by the data.The residual unexplained variabilit y (RUV) was tested using a proportional or combined error models.
(§11) Population PK/PD modelling
(§12) A sequential PK/PD modelling approach was used in which the empirical Bayes estimates of individual PK parameters were us ed as r egression parameters for the PK/P D model. The observations below the limit of detection (LOD; 10 parasites/mL) were mo del led using a l eft-censoring method. In this anal ysis, the changes in parasitemia over time in the presen ce of antimalarial dru g are ass umed to be a result of the differen ce b etween p ar asite growth rate (k grow ) and the r ate at wh ich parasites are killed b y the drug (k k ill ) with a baseline parasitemia (P L base ) at time t 0 (time of inoculation). Diff erent structural PK/PD models were tested to assess the relationship of cipar gamin plasma concentration on the parasite ki lling rate. The E max model assumed a direct effect of cipargamin plasma concent rations on parasite killing.
The turnover model assumed an indirect effect of cipargamin plasma concentrations on parasite killing due to lag in the PD processes (i.e. the kinetics of dru g-receptor binding). The effect compartment mod el assumed an indirect ef fect of cipar gamin plasm a concentration on parasite killing due to biophase equilibration. This model can be interpreted as the dela y for the drug to reach the site of action in which the cip ar gamin concentrations i n the eff ect […]
compartment drives the d rug eff ect. The p arasite clear an ce model assumed that the observed parasites were a mixture of living and dead parasites and that the cipar gami n plasma […]
PD parameters wer e mod elled assuming a log-normal distribution with exception of ln-transformed b aseline par asite values (parasit emia at time of inoculation) w here a no rmal distribution was assumed. […]
were fixed to 0.2. […]

P. vivax = test system: P. vivax; parameters: method as in PMID 25075833; conditions: 30 mg per day for 3 days, P. vivax malaria patients; cited from earlier work
[1] = cited from earlier work
[2] = Population PK model (two-compartment); assay type: in vivo, human
Description: as §1, §2, §3, §4, §5, §6, §7, §8, §9, §10, §11, §12
The turnover model assumed an indirect effect of cipargamin plasma concentrations on parasite killing due to lag in the PD processes (i.e. the kinetics of dru g-receptor binding). The effect compartment mod el assumed an indirect ef fect of cipar gamin plasm a concentration on parasite killing due to biophase equilibration. […]

[3] = test system: P. falciparum female gametocytes; assay: Gametocytemia by pfs25 qRT-PCR; assay type: in vivo, Plasmodium falciparum
Description: A single oral dose of 960 mg piperaquine (PCI Pharma Services, United Kingdom) was administered to subjects in response to parasite regrowth. The purpose of piperaquine treatment was to clear asexual parasites without clearing any gametocytes that may be present. This would allow the gametocytocidal activity of a second dose of cipargamin to be investigated, as well as the transmission of gametocytes to mosquitoes. Gametocytemia was monitored using quantitative reverse transcriptase PCR (qRT-PCR) targeting pfs25 mRNA, a transcript preferentially expressed in mature female gametocytes ([26]). Transcripts per milliliter of blood were converted to female gametocytes per milliliter of blood using a standard curve ([29]). All participants were to receive compulsory rescue treatment with artemether-lumefantrine ([…]; Novartis Pharmaceuticals Pty. Ltd., Macquarie Park, Australia), as well as a single 45-mg dose of primaquine ([…] Group, Sydney, Australia) to clear gametocytes, 21 days after cipargamin dosing or earlier if a second round of parasite regrowth occurred following piperaquine treatment. To monitor total parasitemia, blood samples were collected for 18S rRNA qPCR before inoculation, on day 3, twice daily on days 4 to 6, pretreatment on day 7, and 4, 8, 12, 16, 24, 30, and 36 h posttreatment, twice daily from day 9 to day 11, and every 1 to 3 days until day 35. Blood samples for gametocytemia measurements were collected on day 11, every 1 to 3 days between day 15 and day 29, and on day 35. […] Analyses were performed in R version 3.3.0. The PRR and parasite clearance half-life were estimated using the slope of the optimal fit for the log-linear relationship of the parasitemia decay as described previously ([27]).

[4] = plasma concentration, PK/PD model, 10 mg cohort
[5] = 25 P. falciparum patients, single doses of 10, 15, 20 or 30 mg
[6] = P. falciparum patient, day 6, not considered related
[7] = P. vivax patient, day 9, 30 mg per day for 3 days

Compound: C[C@H]1Cc2c([nH]c3cc(Cl)c(F)cc23)[C@@]2(N1)C(=O)Nc1ccc(Cl)cc12 [cipargamin]
- PRR48 actual, median (95% CI) (P. falciparum; PK/PD model, 10 mg): 2.59 (1.89 – 3.32) log10 unit
- Time above MIC, median (95% CI) (P. falciparum; PK/PD model, 10 mg): 1.96 (1.59 –2.44) days
- Time above MPC90, median (95% CI) (P. falciparum; PK/PD model, 10 mg): 0.89 (0.63–1.26) days
- Emax, maximum parasite killing rate (P. falciparum; final PK/PD Emax model, Hill coefficient fixed to 5): 0.23 h⁻¹
- MIC, median (95% CI) (P. falciparum; [4]): 11.6 (9.9 – 13.3) ng/ml and 11.6 ng/ml
- MPC90, minimum parasiticidal concentration that achieves 90% of maximum effect, median (95% CI) (P. falciparum; [4]): 23.5 (19.9 – 27.4) ng/ml and 23.5 ng/ml
- minimum effective single dose predicted to clear 10^9 parasites/ml (P. falciparum; simulation in patients with malaria, 500 patients per dose, up to day 28): 95 mg
- parasite clearance half-life (P. vivax): 57 min
- AUC0–∞ ([1]; 10 mg, patients with naturally acquired malaria): 6400 ng·h/mL
- LFT abnormalities ([1]; 30 mg per day for 3 days, 11 P. falciparum and 10 P. vivax patients): three subjects displayed LFT abnormalities
- patients with increased ALT [1, 5]: only one patient displayed increased ALT
- patients with increased blood alkaline phosphatase [1, 5]: 40%
- subjects with hyperbilirubinemia [1, 5]: 20%
- increased ALT [1, 6]: 192 U/liter
- increased AST [1, 6]: 121 U/liter
- peak ALT [1, 7]: 241 U/liter
- peak AST [1, 7]: 106 U/liter
- peak ALT ([1]; other P. vivax patient, day 6): 78 U/liter
- peak AST ([1]; other P. vivax patient, day 6): 63 U/liter
- patients with asymptomatic transient ALT elevations (>3 × ULN) ([1]; single 75-mg dose, cohort of 11 P. falciparum patients, ref unpublished, NCT01860989): four patients had asymptomatic transient ALT elevations
- CL/F, estimate (RSE %) ([2]; final population PK model): 5.5 (10.7) L/h
- Vc/F, estimate (RSE %) ([2]; final population PK model): 64.4 (8.9) L
- Q1/F, estimate (RSE %) ([2]; human, in vivo): 12.9 (9.0) L/h
- Vp1/F, estimate (RSE %) ([2]; human, in vivo): 107 (4.8) L
- ka, estimate (RSE %) ([2]; human, in vivo): 0.919 (4.6) /h
- gametocyte development after treatment ([3]; 10 mg cipargamin, followed by piperaquine): Low gametocyte densities were detected in all subjects; also recorded: detected in all 8 subjects; also recorded: not sufficient to prevent gametocyte development
- gametocytemia at time of DMFA, geometric mean ([3]; 20 days after cipargamin dosing): 439 gametocytes/ml
- peak gametocytemia, geometric mean ([3]; after 10 mg cipargamin then 960 mg piperaquine, 8 subjects): 976 female gametocytes/ml
- time of peak gametocytemia after cipargamin dosing ([3]; all subjects, 24 days postinoculation): approximately 17 days
